Values of other authors in patent US20260174718A1, “MODULATORS OF mTORC1 ACTIVITY AND USES THEREOF” (Navitor Pharmaceuticals, Inc., priority 2022, published 2026).

System: mice
Conditions: ketamine 2.5 mg/kg, intraperitoneally

For `CNC1(c2ccccc2Cl)CCCCC1=O` (stereo not shown) [ketamine], the “effect of ketamine challenge alone in the forced swim test” value is given as “ineffective”.
